According to patent publication US8138169B2, “Combination therapy for bipolar disorder” (ComgenRx, Inc., priority 2008, dated 2012):

Test system: patients with bipolar disorder
Experiment: Side effects reported in patient case reports
Assay type: in vivo, human

With `CN(C)CCOC(c1ccccc1)c1ccccc1` [Benadryl] the akisthisia (Example 42: Benadryl 1x/day for akisthisia under Geodon) was “significant improvement”.

In the case of `OCCOCCN1CCN(C2=Nc3ccccc3Sc3ccccc32)CC1` [Seroquel, quetiapine fumurate], the “effect on blood sugar” value (Example 15: Seroquel given by their psychiatrist) is reported as “elevated their blood sugar” and the sedation (Example 18: Seroquel 400 mg) is reported as “excessive sedation in the AM”.

With `O=C1Cc2cc(CCN3CCN(c4nsc5ccccc45)CC3)c(Cl)cc2N1` [Geodon, ziprasidone] the tolerability (Example 42: Geodon 80 mg/day, felt like crawling out of their skin) was “could not tolerate the Geodon”.

In the case of `[Li]` [lithium], the side effects (Example 7: lithium 300 mg tid, stopped) is reported as “intolerable side effects” and the side effects (Example 21: lithium 600 mg/day, improved at 300 mg) is reported as “tremulousness and stomach discomfort along with diarrhea”.
